Assay results from article PMC10584170, “Machine learning-based phenotypic imaging to characterise the targetable biology of Plasmodium falciparum male gametocytes for the development of transmission-blocking antimalarials” (PLOS Pathogens, 2023).

How the values were obtained:
[1] = tested on: P. falciparum male gametocytes; assay: P. falciparum Dual Gamete Formation Assay (PfDGFA), male readout (exflagellation); format: cell-based, Plasmodium falciparum NF54; conditions: for Average inhibition male (%): average of replicates; for % inhibition male (individual replicates) R1: replicate R1; for % inhibition male (individual replicates) R3: replicate R3; for % inhibition male (individual replicates) R4: replicate R4; for Activity: hit = >50% inhibition in male or female readout in at least 3 replicates, 0 = no class assigned
Method in brief: (§1)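 Two sex-specific readouts come from one well: male exflagellation centres recorded by brightfield video right after activation, and female gametes scored by Cy3-anti-Pfs25 fluorescence after 24 h at 28°C.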

[2] = tested on: P. falciparum female gametocytes; assay: P. falciparum Dual Gamete Formation Assay (PfDGFA), female readout (Pfs25-positive female gametes); format: cell-based, Plasmodium falciparum NF54; conditions: for Average inhibition female (%): average of replicates; for % inhibition female (individual replicates) R1: replicate R1; for % inhibition female (individual replicates) R3: replicate R3; for % inhibition female (individual replicates) R4: replicate R4
Method in brief: as §1

[3] = 2µM, 24h preincubation with gametocytes prior to induction of gametogenesis
[4] = 2µM, 24h preincubation, hits selected on >50% inhibition in the male readout across replicates
[5] = PfDGFA at 2µM, 24h preincubation
[6] = 2µM, 24h preincubation, hits selected on >50% inhibition in the female readout across replicates
[7] = PfDGFA at 2µM, 24h preincubation with gametocytes
[8] = number of replicates with >50% inhibition in the male readout, 2µM
[9] = number of replicates with >50% inhibition in the female readout, 2µM
[10] = PfDGFA at 2µM, 24h preincubation with gametocytes prior to induction of gametogenesis
[11] = 2µM, 24h preincubation, number of replicates with >50% inhibition in the male readout
[12] = 2µM, 24h preincubation, number of replicates with >50% inhibition in the female readout
[13] = 2µM, 24h preincubation with gametocytes

SMILES | Average inhibition male (%) [1, 3] | % inhibition male (individual replicates) R1 [1, 3] | % inhibition male (individual replicates) R3 [1, 3] | % inhibition male (individual replicates) R4 [1, 3] | HitlevelM [1, 4] | Activity [1, 5] | Average inhibition female (%) [2, 3] | % inhibition female (individual replicates) R1 [2, 3] | % inhibition female (individual replicates) R3 [2, 3] | % inhibition female (individual replicates) R4 [2, 3] | HitlevelF [2, 6] | % inhibition male (individual replicates) R1 [1, 10] | % inhibition male (individual replicates) R3 [1, 10] | % inhibition male (individual replicates) R4 [1, 10] | Average inhibition male (%) [1, 5] | % inhibition female (individual replicates) R1 [2, 10] | % inhibition female (individual replicates) R3 [2, 10] | % inhibition female (individual replicates) R4 [2, 10] | Average inhibition female (%) [2, 5] | further results
COc1cc(Br)c(S(=O)(=O)n2cc(CN3CCC(N)CC3)c3cc(Cl)ccc32)cc1OC.O=C(O)C(F)(F)F [TCMDC-136384] | 17.6% | 5.7% | -10.3% | 29.6% | 0 | 0 | 13.1% | 17.7% | 22.3% | -2.1% | 0 | – | – | – | – | – | – | – | – | –
CN1CCC(N2CCN(CCOc3cc(NC(=O)/C=C/c4ccccc4Cl)ccc3Br)CC2)CC1.O=C(O)C(=O)O [TCMDC-140962] | 15.3% | 25.8% | -8.5% | 17.6% | 0 | 0 | 8.6% | 14.8% | -6.3% | 11.7% | 0 | – | – | – | – | – | – | – | – | –
CCCOc1c(CCNCCCCNCCc2ccc3ccccc3c2OCCC)ccc2ccccc12.CS(=O)(=O)O [TCMDC-137950] | – | – | – | – | – | – | – | – | – | – | – | – | – | – | – | – | – | – | – | Average inhibition male (%) [1, 7]: 74.1%; % inhibition male (individual replicates) R1 [1, 7]: 87.0%; % inhibition male (individual replicates) R3 [1, 7]: 74.0%; % inhibition male (individual replicates) R4 [1, 7]: 95.7%; HitlevelM [1, 8]: 3; Average inhibition female (%) [2, 7]: 65.5%; % inhibition female (individual replicates) R1 [2, 7]: 72.1%; % inhibition female (individual replicates) R3 [2, 7]: 62.6%; % inhibition female (individual replicates) R4 [2, 7]: 79.5%; HitlevelF [2, 9]: 3
NS(=O)(=O)c1cccc(Nc2nc(N[C@@H]3CCNC3)nc3cc[nH]c(=O)c23)c1.O=C(O)C(F)(F)F [TCMDC-135057] | -3.6% | -10.0% | – | -11.4% | 0 | 0 | 3.8% | 4.1% | 1.9% | 9.1% | 0 | – | – | – | – | – | – | – | – | –
COc1ccc(-c2nc3c(N)nc(N)nc3nc2C(C)C)cc1 [TCMDC-132109] | -8.8% | -5.9% | -23.4% | -14.5% | 0 | 0 | 17.4% | 48.8% | -20.3% | 37.3% | 0 | – | – | – | – | – | – | – | – | –
CCCC(CCC)n1ccc2c3c(N)nc(N)nc3ccc21.Cl [TCMDC-137949] | – | – | – | – | – | – | – | – | – | – | – | 35.5% | 0.4% | -40.5% | 0.9% | 4.6% | 19.1% | -10.8% | 3.5% | –
O=C(O)C(F)(F)F.c1ccc(CN2CCC(NCc3ccc(-c4cccc(CNC5CCCC5)c4)cc3)CC2)cc1 [TCMDC-140491] | 4.9% | 9.8% | – | -11.4% | 0 | 0 | 15.2% | 11.0% | 20.4% | 13.9% | 0 | – | – | – | – | – | – | – | – | –
Clc1ccc(Cc2nc3ccccc3[nH]2)cc1Cl [TCMDC-125878] | – | – | – | – | – | – | – | – | – | – | – | 0.8% | -14.5% | 2.2% | -4.5% | 8.9% | -15.0% | -0.8% | 0.655% | –
Br.CC(C)(C)c1ccc(Cn2c(=N)n(CC(=O)c3ccc(-c4ccccc4)cc3)c3ccccc32)cc1 [TCMDC-124030] | – | – | – | – | – | – | – | – | – | – | – | -15.4% | -16.6% | -3.3% | -8.2% | -3.8% | -20.2% | -0.7% | -8.6% | –
CCCC(CC)n1ccc2c3c(N)nc(N)nc3ccc21.CS(=O)(=O)O (stereo not drawn) [TCMDC-137948] | – | – | – | – | – | – | – | – | – | – | – | 21.2% | 21.4% | 12.8% | 22.4% | -1.7% | -3.2% | -13.6% | -8.1% | –
Oc1ccc2[nH]cc(C3CCN(CCCNCc4ccc(-c5ccccc5)cc4)CC3)c2c1 [TCMDC-139047] | 41.4% | 26.8% | – | 40.8% | – | – | 20.7% | 11.5% | 19.3% | 14.8% | – | – | – | – | – | – | – | – | – | HitlevelM [1, 11]: 1; HitlevelF [2, 12]: 0
COc1cc2ccccc2c(OC)c1CCNCCCCNCCc1c(OC)cc2ccccc2c1OC.CS(=O)(=O)O [TCMDC-137842] | 40.8% | 35.9% | -0.8% | 68.2% | 2 | 0 | 13.3% | 16.6% | -7.2% | 21.8% | 0 | – | – | – | – | – | – | – | – | –
Cc1ccc2cc(NC(=O)CCCCCCCON3C(N)=NC(N)=NC34CCCCC4)ccc2n1.O=C(O)C(F)(F)F [TCMDC-140377] | – | – | – | – | – | – | – | – | – | – | – | -16.0% | -37.7% | -32.5% | -24.7% | 7.6% | -9.1% | 0.33% | 0.7% | –
Cl.Nc1nc(N)c2c(ccc3c2ccn3C2CCCCC2)n1 [TCMDC-137871] | 11.6% | 19.6% | 1.6% | -3.1% | 0 | 0 | 10.6% | -11.4% | 35.4% | 4.9% | 0 | – | – | – | – | – | – | – | – | –
COc1ccc(CCNCCCCCCNCCc2ccc(-c3ccccc3)cc2)cc1OC.Cl [TCMDC-131267] | – | – | – | – | – | – | – | – | – | – | – | – | – | – | – | – | – | – | – | Average inhibition male (%) [1, 13]: 91.2%; % inhibition male (individual replicates) R1 [1, 13]: 90.5%; % inhibition male (individual replicates) R4 [1, 13]: 88.4%; Average inhibition female (%) [2, 13]: 51.9%; % inhibition female (individual replicates) R1 [2, 13]: 49.5%; % inhibition female (individual replicates) R3 [2, 13]: 51.6%; % inhibition female (individual replicates) R4 [2, 13]: 50.9%
Cc1cc(N)nc2ccc(-c3ccc(CCN)cc3)cc12 [TCMDC-137786] | – | – | – | – | – | – | – | – | – | – | – | – | – | – | – | – | – | – | – | Average inhibition male (%) [1, 7]: 75.8%; % inhibition male (individual replicates) R1 [1, 7]: 70.7%; % inhibition male (individual replicates) R4 [1, 7]: 86.5%; HitlevelM [1, 8]: 3; Average inhibition female (%) [2, 7]: 37.0%; % inhibition female (individual replicates) R1 [2, 7]: 36.7%; % inhibition female (individual replicates) R3 [2, 7]: 37.4%; % inhibition female (individual replicates) R4 [2, 7]: 36.1%; HitlevelF [2, 9]: 0
CS(=O)(=O)CCNCc1ccc(-c2ccc3c(Nc4ccc(Cl)cc4F)ccnc3c2)o1 [TCMDC-138445] | – | – | – | – | – | – | – | – | – | – | – | -15.4% | 14.3% | -10.6% | -2.9% | 4.7% | -15.0% | 12.7% | -1.7% | –
N#Cc1ccc(Cn2ccc3c4c(N)nc(N)nc4ccc32)cc1 [TCMDC-137820] | 57.5% | 46.1% | 51.2% | 67.4% | – | – | 75.9% | 77.9% | 77.4% | 70.8% | – | – | – | – | – | – | – | – | – | HitlevelM [1, 11]: 3; HitlevelF [2, 12]: 4
